According to US9278963B2, “Pyrimidine hydroxy amide compounds as histone deacetylase inhibitors” (Acetylon Pharmaceuticals, Inc., priority 2013, dated 2016):

Legend:
[1] = test system: human erythroid, myeloid and megakaryocyte hematopoietic progenitors; experiment: Hematopoietic progenitor proliferation (colony) assay; format: cell-based; details: compared with MS-275; 14-16 days in culture
Procedure: This study evaluated the potential effect of test compounds on human erythroid, myeloid and megakaryocyte hematopoietic progenitor proliferation in media formulations containing various cytokines. Normal human bone marrow light density cells derived from a normal bone marrow donor (Lonza, Md.) were used for these studies. Clonogenic progenitors of human erythroid (CFU-E, BFU-E) and granulocyte-monocyte (CFU-GM) lineages were assessed in a semi-solid methylcellulose-based media formulation containing rhIL-3 (10 ng/mL), rhGM-SCF (10 ng/mL), rhSCF (50 ng/mL) and Epo (3 U/mL). Clonogenic progenitors of human megakaryocyte lineage were assessed in a semi-solid collagen based matrix containing rhIL-3 (10 ng/mL), rhIL-6 (10 ng/mL) and rhTpo (50 ng/mL).
Compounds were added to the medium to give the final desired concentrations. […] Following 14-16 days in culture, myeloid and erythroid colonies were assessed microscopically and scored by trained personnel. […] The colonies were assessed and scored by trained personnel and divided into the following categories based on size; CFU-Mk (3-20), CFU-Mk (21-49) and CFU-Mk (≧50).
The mean±1 standard deviation of three replicate cultures was calculated for progenitors in both media formulations. […] A sigmoidal curve was then fit to the graph and from this curve the inhibitory concentration (μM) was then calculated using the Boltzman equation […]

HDAC1 = HDAC1 (Homo sapiens (Human), UniProt Q13547); experiment: HDAC enzyme assay, HDAC1; format: biochemical
fetal globin (HbG) = experiment: Fetal globin (HbG) induction in cultured CD34+ bone marrow cells; format: cell-based, human; details: 1 μM, treatment for 4 days
H929 human myeloma cells = experiment: In vitro cell proliferation, MTS viability; format: cell-based; details: up to 7 days, relative to Day 0
Procedure: Cellular viability was assessed using Aqueous One MTS reagent at Days 0 (immediately after seeding), 3, 5, and 7.

[2] = test system: human CD34+ bone marrow cells; experiment: Cellular viability of cultured CD34+ bone marrow cells; details: 1 μM, treatment for 4 days
HDAC3 = HDAC3 (Homo sapiens (Human), UniProt O15379); experiment: HDAC enzyme assay, HDAC3; format: biochemical
[3] = test system: SH-SY5Y neuroblastoma cells; experiment: Neuroblastoma cell cycle by flow cytometry, SH-SY5Y; format: cell-based; details: 72 hours, 0.5, 2 and 5 μM (ATRA 1 μM)
Procedure: The following is a quick summary of the neuroblastoma cell cycle experiments. Adherent cells were plated into 12-well plates at 10^6 cells/well and allowed to adhere for 2-4 hours. Compounds were dispensed in DMSO at the indicated concentrations using an automated liquid handling system (Tecan D300) and incubated for the indicated times at 37° C. with 5% CO2. Cells were harvested with enzyme-free cell disassociation solution and washed with buffered saline. Cells were fixed overnight with 100% ethanol. Cell cycle was assessed by flow cytometry using the Molecular Probes FxCycle PI/RNase Staining Solution kit according to manufacture protocols.
The protocol for the cell cycle experiments was as follows. The day before the experiment, the cells were fed in the flask by doubling the media. Then, the cells were harvested by adding non-enzymatic cell dissociation media and incubating at 37° C. for 15 minutes. Next, the cells were transferred to a 50 ml tube and pipet to create a single-cell suspension. The cells were then washed with PBS buffer. Then, the cells were resuspended in complete media at 5×10^5 cells per ml. Next, 2 ml of cells were transferred to 12-well plates. Then, the treatment compounds were dispensed into each well using the D300 liquid handler. The cells were incubated for the indicated time at 37° C. Then, the cells were harvested by adding 500 μl enzyme free cell dissociation solution and incubating at 37° C. for 15 minutes. Next, the cells were spun into a pellet and then washed with PBS. Then, 500 μl 100% EtOH was added and incubated at 4° C. overnight. Then, the cells were washed 3× with PBS. The cells were then resuspended in […] FxCycle PI/RNase solution, and incubated for 2-4 hours at room temperature. Finally, the cells were assayed by flow cytometry.
SH-SY5Y neuroblastoma cells were treated with varying concentrations of either Compound X or Y, and/or ATRA (all trans retinoic acid). […] In addition, the fold change of p21 was also calculated. […] The HDACi/ATRA combination effects were modest, with little difference compared to single agents.

Chain of HDAC1 (Q13547 whole entry): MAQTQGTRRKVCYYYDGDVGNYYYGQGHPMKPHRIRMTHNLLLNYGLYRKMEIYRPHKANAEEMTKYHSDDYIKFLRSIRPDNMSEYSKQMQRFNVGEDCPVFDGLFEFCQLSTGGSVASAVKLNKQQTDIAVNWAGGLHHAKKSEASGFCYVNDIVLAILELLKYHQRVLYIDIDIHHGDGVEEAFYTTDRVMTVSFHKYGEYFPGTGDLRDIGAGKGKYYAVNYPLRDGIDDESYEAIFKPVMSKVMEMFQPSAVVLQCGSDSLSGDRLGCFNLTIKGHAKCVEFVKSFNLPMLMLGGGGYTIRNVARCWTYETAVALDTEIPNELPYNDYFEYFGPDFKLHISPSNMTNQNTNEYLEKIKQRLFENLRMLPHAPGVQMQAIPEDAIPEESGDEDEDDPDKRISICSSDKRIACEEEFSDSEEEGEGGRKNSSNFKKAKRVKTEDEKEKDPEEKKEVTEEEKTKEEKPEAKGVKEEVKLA
Chain of HDAC3 (O15379 whole entry): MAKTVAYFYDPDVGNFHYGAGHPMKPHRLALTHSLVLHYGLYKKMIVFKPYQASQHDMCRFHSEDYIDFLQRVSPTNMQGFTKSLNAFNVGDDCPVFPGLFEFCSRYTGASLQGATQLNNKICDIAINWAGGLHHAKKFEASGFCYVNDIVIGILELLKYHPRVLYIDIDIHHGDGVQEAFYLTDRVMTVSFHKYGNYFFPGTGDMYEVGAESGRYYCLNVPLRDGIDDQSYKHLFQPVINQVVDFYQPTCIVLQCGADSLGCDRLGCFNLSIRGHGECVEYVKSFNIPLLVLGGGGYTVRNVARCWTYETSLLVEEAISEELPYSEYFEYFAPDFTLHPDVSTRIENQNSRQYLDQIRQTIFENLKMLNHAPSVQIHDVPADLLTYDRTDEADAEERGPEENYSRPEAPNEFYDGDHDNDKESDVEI
Chain of HDAC3 (Q9Y618 395-489 partner): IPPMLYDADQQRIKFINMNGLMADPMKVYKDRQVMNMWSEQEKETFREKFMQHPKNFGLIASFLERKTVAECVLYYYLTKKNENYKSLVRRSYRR

With `O=C(NO)c1cnc(NC2(c3ccccc3)CCN(C(=O)Nc3ccccc3)CC2)nc1` [Compound 001, N-hydroxy-2-((4-phenyl-1-(phenylcarbamoyl)piperidin-4-yl)amino)pyrimidine-5-carboxamide] the “cytotoxicity against erythroid, myeloid and megakaryocytes” value [1] was “significantly less cytotoxicity”, the IC50 (HDAC1) was 38 nM and the “selectivity for HDAC1 and 2” value (HDAC1; relative to HDAC3) was 30 fold. The “increase in the percentage of HbG relative to other beta-like globin transcripts” value (fetal globin (HbG)) was 2 fold, the “doses resulting in a net decrease in the viability of H929 cells” value (H929 human myeloma cells) was “over 3 uM” and the “decrease in cells viability” value [2] was 1.2 fold. The IC50 (HDAC3) was 1010 nM and the “percent of the cell population in G2, S, G1 and Sub G1 phase” value [3] was “induced a reduction in G1/G2 and increase in sub-G1”.
